According to patent US20250000881A1, “TREATMENT OF TREATMENT RESISTANT […] PSILOCYBIN” (COMPASS […], priority 2021, published 2025):

Tested on: adult subjects with TRD
Assay: Phase 2b randomised double-blind trial in TRD: MADRS total score, response, remission, sustained response
Assay type: in vivo, human
Settings: for Protocol-defined sustained response (MADRS response criteria from week 3 until week 12): up to week 12
Experimental: Studies with more rigorous designs are needed to better the therapeutic potential of psilocybin in treatment-resistant depression (TRD). The aim of this study was to assess the effectiveness of 3 different doses of psilocybin (1 mg, 10 mg, and 25 mg) in TRD.
This was a Phase 2b, international multicentre, randomized, fixed dose, double-blind trial. The study population included adult men and women, 18 years of age and older, with TRD. […] Augmentation counts as a second treatment, provided it was approved for the adjunctive treatment of MDD in that country.
The treatment period was determined the optimal therapeutic dose; 233 subjects were randomised in an approximately 1:1:1 ratio to receive 1 mg psilocybin (79 subjects), 10 mg psilocybin (75 subjects), or 25 mg psilocybin (79 subjects). Average patient baseline MADRS values were 31.9 in the 25 mg group, 33.0 in the 10 mg group, and 32.7 in the 1 mg group. This represents moderate to severe depression (≥31=cut-off for severe depression based on MADRS).
The primary objective of this study was to evaluate the efficacy of psilocybin (25 mg or 10 mg) compared to 1 mg, administered under supportive conditions to adult subjects with TRD, in improving depressive symptoms, as assessed by the change in the Montgomery-Asberg Depression Rating Scale (MADRS) total score from baseline. Baseline is defined as the assessment score obtained on Day-1. The primary time point is week 3; this variable was analyzed for the change from Baseline to day 1, and weeks 1, 3, 6, 9, and 12 of the study.
Additional objectives of this study were to assess the efficacy of psilocybin compared to 1 mg psilocybin on the: • (a) proportion of subjects with response defined as a ≥50% decrease in MADRS total score from baseline to week 3. This was assessed at day 1 and at weeks 1, 6, 9, and 12 of the study. • (b) proportion of subjects who have a sustained response at week 12. Sustained response is defined as the proportion of patients fulfilling response criteria at any visit up to and including week 3, that also fulfils response criteria at all subsequent visits up to and including week 12. Response is defined as ≥50% decrease in MADRS total score from baseline.
Subjects were randomized to the appropriate therapy after it was confirmed at baseline (Visit 2) that the subject remained eligible to participate in the study. Randomization was stratified by country. Each subject was assigned 1 treatment bottle containing 5 capsules packaged in a double-blind fashion, depending on the randomized treatment arm, the bottle will contain 1 of the following: • (a) 10-mg treatment bottle: 2×5-mg capsules and 3×placebo capsules; • (b) 25-mg treatment bottle: 5×5-mg capsules; or • (c) 1-mg treatment bottle: 1×1-mg capsule and 4×placebo capsules.
The change from baseline in MADRS total score at week 3 will be evaluated with a mixed effects model for repeated measures analysis. The model includes treatment, visit, study site, prior psychedelic experience, treatment by visit interaction, subject as a random effect, and baseline MADRS total score. Comparison of the psilocybin optimal dose versus 1 mg psilocybin was performed at the 0.05 testing level. A sensitivity analysis was performed on the primary mixed model repeated measures model adding treatment by study site or country interaction into the model. If it was significant (at the 10% level), then further investigations of sites were performed.
[…] additional efficacy endpoints that are dichotomous variables (proportion of subjects who are responders, remitters, and sustained responders) were analyzed using the Cochran Mantel Haenszel chi square test, stratified by country, to compare the psilocybin optimal therapeutic dose versus 1 mg psilocybin. A stepdown procedure to correct for multiplicity was employed. […]

Structure (SMILES): CN(C)CCc1c[nH]c2cccc(OP(=O)(O)O)c12 [COMP360, psilocybin]
- MADRS total score change from baseline, LS mean (1 mg (N = 79), Day 2): −9.0
- MADRS total score change from baseline, LS mean (1 mg (N = 79), Week 1): −6.8
- MADRS total score change from baseline, LS mean (1 mg (N = 79), Week 3): −5.5
- MADRS total score change from baseline, LS mean (1 mg (N = 79), Week 6): −6.3
- MADRS total score change from baseline, LS mean (1 mg (N = 79), Week 9): −5.4
- MADRS total score change from baseline, LS mean (1 mg (N = 79), Week 12): −6.0
- Sustained response (MADRS response at week 3 and week 12 and at least one of week 6 and week 9) (1 mg group): 10.1%
- Protocol-defined sustained response (MADRS response criteria from week 3 until week 12) (1 mg group): 10.1%
- MADRS total score change from baseline, LS mean (10 mg (N = 75), Day 2): −12.0
- MADRS total score change from baseline, LS mean (10 mg (N = 75), Week 1): −9.1
- MADRS total score change from baseline, LS mean (10 mg (N = 75), Week 3): −7.9
- MADRS total score change from baseline, LS mean (10 mg (N = 75), Week 6): −6.0
- MADRS total score change from baseline, LS mean (10 mg (N = 75), Week 9): −6.1
- MADRS total score change from baseline, LS mean (10 mg (N = 75), Week 12): −5.7
- MADRS total score change from baseline, LS mean diff vs 1 mg (10 mg vs 1 mg, Day 2): −3.0
- MADRS total score change from baseline, LS mean diff vs 1 mg (10 mg vs 1 mg, Week 1): −2.2
- MADRS total score change from baseline, LS mean diff vs 1 mg (10 mg vs 1 mg, Week 3): −2.4
- MADRS total score change from baseline, LS mean diff vs 1 mg (10 mg vs 1 mg, Week 6): 0.3
- MADRS total score change from baseline, LS mean diff vs 1 mg (10 mg vs 1 mg, Week 9): −0.7
- MADRS total score change from baseline, LS mean diff vs 1 mg (10 mg vs 1 mg, Week 12): 0.3
- MADRS total score change from baseline, LS mean (25 mg (N = 79), Day 2): −15.0
- MADRS total score change from baseline, LS mean (25 mg (N = 79), Week 1): −13.1
- MADRS total score change from baseline, LS mean (25 mg (N = 79), Week 3): −12.0
- MADRS total score change from baseline, LS mean (25 mg (N = 79), Week 6): −11.7
- MADRS total score change from baseline, LS mean (25 mg (N = 79), Week 9): −9.4
- MADRS total score change from baseline, LS mean (25 mg (N = 79), Week 12): −9.6
- Sustained response (MADRS response at week 3 and week 12 and at least one of week 6 and week 9) (25 mg group): 24.1%
- Protocol-defined sustained response (MADRS response criteria from week 3 until week 12) (25 mg group): 20.3%
- MADRS total score change from baseline, LS mean diff vs 1 mg (25 mg vs 1 mg, Day 2): −5.9
- MADRS total score change from baseline, LS mean diff vs 1 mg (25 mg vs 1 mg, Week 1): −6.3
- MADRS total score change from baseline, LS mean diff vs 1 mg (25 mg vs 1 mg, Week 3 (primary endpoint)): −6.6
- MADRS total score change from baseline, LS mean diff vs 1 mg (25 mg vs 1 mg, Week 6): −5.3
- MADRS total score change from baseline, LS mean diff vs 1 mg (25 mg vs 1 mg, Week 9): −4.0
- MADRS total score change from baseline, LS mean diff vs 1 mg (25 mg vs 1 mg, Week 12): −3.6
